The assay concerns the target T1, stearoyl-CoA desaturase (SCD) (Rattus norvegicus, UniProt P07308).
T1 construct: from tissue; host or cells: liver microsomes of male Sprague Dawley rats, with SCD induced by a carbohydrate-rich diet
T1 sequence (P07308 1-358): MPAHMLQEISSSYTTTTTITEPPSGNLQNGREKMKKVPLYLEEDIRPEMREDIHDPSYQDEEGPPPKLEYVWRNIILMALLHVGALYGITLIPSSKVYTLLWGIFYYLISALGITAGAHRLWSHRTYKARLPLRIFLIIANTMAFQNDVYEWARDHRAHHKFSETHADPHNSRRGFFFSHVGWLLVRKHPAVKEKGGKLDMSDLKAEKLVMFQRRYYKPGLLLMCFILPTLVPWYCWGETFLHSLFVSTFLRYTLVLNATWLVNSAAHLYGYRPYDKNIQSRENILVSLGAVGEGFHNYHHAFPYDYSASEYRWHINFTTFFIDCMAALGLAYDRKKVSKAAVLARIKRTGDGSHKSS
Nature of the assay: SCD assay, rat liver microsomes with [3H]stearoyl CoA (adapted from Talamo and Bloch). The settings on record: second table, same SCD assay. It counts as biochemical. The text has this:
The identification of compounds of the invention as SCD inhibitors was readily accomplished using the SCD enzyme and microsomal assay procedure described in Talamo and Bloch (1969) Analytical Biochemistry 29:300-304.
The rat liver microsomes were collected according to the procedure described in Ozols (1990) Methods Enzm, 182:225.
Male Spraque Dawley Rats were placed on regimented fasting protocol for one week to stimulate SCD enzymatic activity. 48-hour periods were alternated between feeding and fasting to induce and down-regulate SCD activity with SCD activity being induced via carbohydrate rich diet prior to liver perfusion and collection.
The rats were anesthetized with Isoflurane inhalation anesthetic, the liver perfused with cold phosphate buffered saline (PBS), weighed, and chilled in cold homogenization buffer (250 mM sucrose, 10 mM Tris, 1 mM EDTA, pH 7.6.
The livers were finely minced and placed in homogenization tube. 40 mL of homogenization buffer was added to the homogenization tube and the liver homogenized and centrifuged in a pre-chilled SLA-600 TC at 800G rotor for 10 min at 4° C.
Following centrifugation, the supernatant was collected and the pellet removed and discarded. This supernatant was then centrifuged at 10,000G for 35 minutes. Following centrifugation, the supernatant was collected and the pellet discarded. The supernatant was further centrifuged in a pre-chilled 45-Ti rotor at 130,000 G (41,000 RPM) for 90 minutes at 4° C.
The supernatant was then aspirated off and the collected microsomal pellet washed in 25 mL of Glycerol PBS (1×PBS 7.4, 20% Glycerol) and resuspended in 4-5 volumes of Glycerol PBS.
The protein concentration of the microsomal preparation was determined by BCA assay (Pierce) and the microsomes were aliquoted and stored at −80° C.
Biobeads were ground to a smaller size in a mortar and pestle and filtered through 300 μM mesh and then resuspended in 3.6% TCA.
SCD was determined in the desaturase assay buffer. This assay buffer contained 0.1 M Tris buffer, pH 7.2, 2 mM NADH, 4.8 mM ATP, 0.5 mM CoA, 4.8 mM MgCl2, and 0.1% BSA.
1 μl of each compound of Formula I was added to an assay plate by a low volume (0.5-10 μL) multichannel pipette. A DMSO control was also prepared. The microsomes were quickly thawed and added to assay buffer so that a concentration of 1-0.1 mg/ml was achieved (0.5-0.05 mg/ml assay final). 50 μl of the microsome suspension in assay buffer was then added into each well in the compound assay plate, the plate was covered, and the microsomes preincubated with the compounds for 30-60 minutes on the orbital shaker, 50-75 rpm, at room temperature.
After preincubation, the reaction was initiated by the addition of 50 μl of substrate solution (20 μM Stearoyl CoA, [3H]Stearoyl CoA, 74nCi) to the preincubated microsomes/compound suspensions in MilliQ (Millipore) H2O. The reaction mixtures were then incubated for 45 minutes on the orbital shaker at 50-75 rpm at room temperature.
The reaction was terminated by the addition of 10 μl of 21% trichloroacetic acid (TCA) to the reaction mixture followed incubation on the orbital shaker for 30 minutes at 50-75 rpm at room temperature followed by centrifugation for 5 minutes at 3700 rpm.
50 μl of a 6% Bio-Bead suspension in H2O was added to the reaction mixture and the assay plate was sealed. The Bio-Bead mixture was incubated on the orbital shaker for 1 to 24 hours, 100-150 rpm at room temperature, and then the mixture was centrifuged at 2000g for 5 minutes to pellet the Bio-Beads.
25 μl of the supernatant was harvested from each well and transferred to a detection plate. 100 μl of OptiPhase SuperMix scinitillation cocktail (containing sufficient NaOH to neutralize the TCA) was added and the solutions mixed by vigorous shaking (300-400 rpm) for 5 minutes at room temperature.
In general terms: Microsomes from liver hold many membrane-bound enzymes, among them those of drug oxidation.
Broadly, the IC50 is the point on the concentration scale where inhibition reaches its midpoint. High values mean lower potency, low ones higher potency. Regarding `COc1ccc(-c2nc3ccc(NCc4cccc(C(F)(F)F)c4)nc3n(NC(=O)COC(C)=O)c2=O)cc1` [compound 45, 2-(2-(4-methoxyphenyl)-3-oxo-6-(3-(trifluoromethyl)benzylamino)pyrido[2,3-b]pyrazin-4(3H)-ylamino)-2-oxoethyl acetate], the IC50 amounted to 6700 nM. On to `COc1ccc(-c2nc3cc(NC(=O)OCc4ccccc4)ccc3n(CCNC(C)=O)c2=O)cc1` [compound 46, benzyl 1-(2-acetamidoethyl)-3-(4-methoxyphenyl)-2-oxo-1,2-dihydroquinoxalin-6-ylcarbamate], for which half-maximal inhibition (IC50) required 20000 nM. As to `Cc1nc2ccc(NCc3cccc(C(F)(F)F)c3)cc2n(CCNC(=O)CCO)c1=O` [compound 49, 3-hydroxy-N-(2-(3-methyl-2-oxo-7-(3-(trifluoromethyl)benzylamino)quinoxalin-1(2H)-yl)ethyl)propanamide], the IC50 turned out to be 1100 nM. In the case of `Cc1nc2ccc(NCc3cccc(C(F)(F)F)c3)cc2n(CCC(=O)NCCO)c1=O` [compound 50, N-(2-hydroxyethyl)-3-(3-methyl-2-oxo-7-(3-(trifluoromethyl)benzylamino)quinoxalin-1(2H)-yl)propanamide] it was 230 nM; in that of `Cc1nc2ccc(NCc3cccc(C(F)(F)F)c3)cc2n(CCNC(N)=O)c1=O` [compound 53, 1-(2-(3-methyl-2-oxo-7-(3-(trifluoromethyl)benzylamino)quinoxalin-1(2H)-yl)ethyl)urea], 15 nM; in that of `COc1ccc(-c2nc3ccc(NCCc4cccc(Cl)c4)cc3n(CCNC(C)=O)c2=O)cc1` [compound 54, N-(2-(7-(3-chlorophenethylamino)-3-(4-methoxyphenyl)-2-oxoquinoxalin-1(2H)-yl)ethyl)acetamide], 100 nM. `COc1ccc(-c2nc3ccc(NCc4ccc(C)c(C)c4)cc3n(CCNC(C)=O)c2=O)cc1` [compound 57, N-(2-(7-(3,4-dimethylbenzylamino)-3-(4-methoxyphenyl)-2-oxoquinoxalin-1(2H)-yl)ethyl)acetamide] gave an IC50 of 26 nM.

Compound `COc1ccc(-c2nc3ccc(NCCc4ccc(Cl)cc4)cc3n(CCNC(C)=O)c2=O)cc1` [compound 58, N-(2-(7-(4-chlorophenethylamino)-3-(4-methoxyphenyl)-2-oxoquinoxalin-1(2H)-yl)ethyl)acetamide] had an IC50 of 82 nM.

The compound `COc1ccc(-c2nc3ccc(NCc4ccc(Cl)c(C(F)(F)F)c4)cc3n(CCNC(C)=O)c2=O)cc1` [compound 62, N-(2-(7-(4-chloro-3-(trifluoromethyl)benzylamino)-3-(4-methoxyphenyl)-2-oxoquinoxalin-1(2H)-yl)ethyl)acetamide;] gave an IC50 of 6 nM. The value for `COc1ccc(-c2nc3ccc(NCc4ccc(F)c(C)c4)cc3n(CCNC(C)=O)c2=O)cc1` [compound 63, N-(2-(7-(4-fluoro-3-methylbenzylamino)-3-(4-methoxyphenyl)-2-oxoquinoxalin-1(2H)-yl)ethyl)acetamide] was 5 nM; that for `COc1ccc(-c2nc3ccc(NCc4cc(C(F)(F)F)ccn4)cc3n(CCNC(C)=O)c2=O)cc1` [compound 64, N-(2-(3-(4-methoxyphenyl)-2-oxo-7-((4-(trifluoromethyl)pyridin-2-yl)methylamino)quinoxalin-1(2H)-yl)ethyl)acetamide] was 39 nM. In the case of “(R)-3-(2-(4-methoxyphenyl)-3-oxo-6-(3-(trifluoromethyl)benzylamino)pyrido[2,3-b]pyrazin-4(3H)-yl)butanamide [compound 22]” it was 67 nM; in that of “(S)-2-hydroxy-N-(2-(3-methyl-2-oxo-7-(3-(trifluoromethyl)benzylamino)quinoxalin-1(2H)-yl)ethyl)propanamide [compound 48]”, 8000 nM; in that of “(S)-3-(2-(4-methoxyphenyl)-3-oxo-6-(3-(trifluoromethyl)benzylamino)pyrido[2,3-b]pyrazin-4(3H)-yl)butanamide [compound 39]”, 19000 nM. The value for “(±)-2,3-dihydroxy-N-(2-(3-methyl-2-oxo-7-(3-(trifluoromethyl)benzylamino)-quinoxalin-1(2H)-yl)ethyl)-propanamide [compound 59]” was 360 nM; that for “N-(2-(3-(4-methoxyphenyl)-7-(3-methylbenzylamino)-2-oxoquinoxalin-1(2H)-yl)ethyl)acetamide [compound 56]” was 18 nM. Consider “N-(2-(3-methyl-2-oxo-7-(3-(trifluoromethyl)benzylamino)quinoxalin-1(2H)-yl)ethyl)thiophene-3-carboxamide [compound 51]”, for which 2.6 nM corresponded to half-maximal inhibition (IC50). For “N-(2-(3-oxo-6-(3-(trifluoromethyl)benzylamino)-2-(4-(trifluoromethyl)phenyl)pyrido[2,3-b]pyrazin-4(3H)-yl)ethyl)acetamide [compound 37]”, inhibition was half-maximal at 1300 nM (IC50). In the case of “N-(2-(6-(2-chlorobenzylamino)-2-(4-methoxyphenyl)-3-oxopyrido[2,3-b]pyrazin-4(3H)-yl)ethyl)acetamide [compound 1]” it was 4100 nM; in that of “N-(2-(6-(3,4-dichlorobenzylamino)-2-(4-methoxyphenyl)-3-oxopyrido[2,3-b]pyrazin-4(3H)-yl)ethyl)-2-hydroxyacetamide [compound 34]”, 120 nM; in that of “N-(2-(6-(3-methoxybenzylamino)-2-(4-methoxyphenyl)-3-oxopyrido[2,3-b]pyrazin-4(3H)-yl)ethyl)acetamide [compound 13]”, 760 nM. The value for “N-(2-(7-(2-(2-chlorophenoxy)ethylamino)-3-(4-methoxyphenyl)-2-oxoquinoxalin-1(2H)-yl)ethyl)acetamide [compound 55]” was 250 nM; that for “benzyl 1-(2-acetamidoethyl)-3-(3,4-dichlorophenyl)-2-oxo-1,2-dihydroquinoxalin-6-ylcarbamate [compound 47]” was 2300 nM.
